# Measurements as given in patent publication US8952054B2, “Small molecule inhibitors of MUC1 and methods of identifying the same” (Dana-Farber Cancer Institute, Inc., priority 2010, dated 2015).
# pIC50: −log10 of the molar value.
# Assays:
# [1] = system: ZR-75-1 breast tumor xenografts; assay: ZR-75-1 breast tumor xenografts in nude mice; type: in vivo, Balb-c nu/nu mice
# Method: FIGS. 5A-C. MUC1/CQC peptide blocks growth of ZR-75-1 breast tumor xenografts. (FIG. 5A) Four to six week-old female Balb-c nu/nu mice were implanted with 17-β-estradiol plugs. After 24 h, ZR-75-1 breast cancer cells (imbedded in matrigel) were injected subcutaneously in the flank. When tumors were ˜150 mm3, the mice were paired matched into groups and injected intraperitoneally with PBS (vehicle control; closed squares), 50 mg/kg MUC1/AQA peptide (control peptide; open squares) or 10 mg/kg MUC1/CQC peptide (closed triangles) daily for 21 d. Another group was treated with 50 mg/kg MUC1/CQC peptide daily for 6 d (open triangles). Mice were weighed twice weekly and tumor measurements were performed every 4 d. (FIGS. 5B and 5C). On day 24 (asterisk), tumors harvested from the control group and the group treated with 50 mg/kg/d×6 d were stained with H&E (FIG. 5B) and with an antibody against MUC1 (FIG. 5C).
# To determine if administration of the MUC1/CQC peptide is associated with effects on body weight, five female nude (nu/nu) mice were injected intraperitoneally (IP) once each day at a dose of 50 mg/kg. […] To assess anti-tumor activity, ZR-75-1 cells (1×10^7) were implanted subcutaneously into the flanks of nude mice. After 12 d, mice bearing tumors of approximately 150 mm^3 were treated with the MUC1/CQC peptide at doses of 10 and 50 mg/kg/d. As controls, mice were treated with vehicle alone or with the MUC1/AQA peptide. Administration of the MUC1/CQC peptide at 10 mg/kg/d×21 d slowed growth as compared to that obtained with the MUC1/AQA peptide given at 50 mg/kg/d (FIG. 5A). […] Consequently, treatment was stopped and the mice were monitored for regrowth. […] To assess in part the basis for the activity, tumors harvested from control and treated mice were examined by histopathology. […] Sections of the tumors were also stained with an antibody against MUC1.
# [2] = target: T1, MUC1-CD (Homo sapiens, UniProt P15941); assay: Plate-based MUC1-CD dimerization inhibition assay (primary screening); type: biochemical
# T1 construct: the 72 aa cytoplasmic domain (CD); His; made in house
# T1 sequence (P15941 1184-1255 limits assumed): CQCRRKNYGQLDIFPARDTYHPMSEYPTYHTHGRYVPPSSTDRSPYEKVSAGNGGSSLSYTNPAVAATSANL
# Method: FIG. 6—Schematic Illustration of Primary HTS Screening Assay for MUC1-CD Dimerization. MUC1-CD protein was coated on a 96 well plate and then incubated with Biotinylated MUC1-CD that binds to non-biotinylated MUC1-CD protein by dimer formation. Bound biotinylated MUC1-CD protein was detected by incubation with Streptavin-HRP+peroxidase substrate system.
# FIGS. 11A-C—Identification of MUC1-CD dimerization inhibitors in a small molecule screen. (FIG. 11A) Schematic representation of the MUC1-C subunit with the 58 amino acid (aa) extracellular domain (ECD), the 28 aa transmembrane domain (TD) and the 72 aa cytoplasmic domain (CD; SEQ ID NO: 1). The sequence of MUC1-CD is included with highlighting of the CQC dimerization motif. (FIG. 11B) The assay for identification of MUC1-CD dimerization inhibitors is depicted with the following steps: (i) coating of MUC1-CD onto a microplate, (ii) adding soluble biotinylated MUC1-C and […] compound, and (iii) addition of streptavidin-HRP and then peroxide with conversion by HRP to a blue color. The signal is measured by EnVision and proportional to the amount of bound biotin-labeled MUC1-CD.
# FIGS. 12A-D—Apigenin is an inhibitor of MUC1-CD dimerization in vitro and in cells. (FIG. 12A) Structures of apigenin and its analogue baicalein. Using the in vitro screening assay, dimerization of MUC1-CD was assessed in the presence of 100 μM apigenin or 100 μM baicalein each dissolved in 0.1% DMSO. The results (mean±SD of 3 determinations) are expressed as percentage of control dimerization in the presence of DMSO alone. (FIG. 12B) MUC1-CD dimerization was assessed in the presence of the indicated concentrations of apigenin in the in vitro screening assay. […] (FIG. 12C) Soluble MUC1-CD was incubated in the presence of 1% DMSO, 1 mM apigenin or 1 mM baicalein for 1 h at room temperature. Monomers and dimmers were assessed by electrophoresis in a non-reducing gel and immunoblotting with anti-MUC1-C. (FIG. 12D) 293 cells were transiently transfected to express an empty vector or GFP-MUC1-CD and Flag-MUC1-CD. At six hours after transfection, the cells were left untreated, and treated with 75 μM apigenin or baicalein for 3 days. Whole-cell lysates were precipitated with anti-Flag, and the precipitates were immunoblotted with the indicated antibodies.
# Multi-well (96- or 384-well) plates are coated with non-biotinylated MUC1-CD, and biotinylated MUC1-CD is added to the plates to initiate MUC1-CD dimerization or oligomerization. A luminescent substrate for biotin binding is added to the plate, followed by washing. Resulting fluorescence is detected by luminescence detection at absorbance 405 nm. A complete schematic illustration of this assay is described in […]. Test compounds are added at multiple concentrations to the plates and, following incubation and washing, the plates are read for luminescent detection. The formation of MUC1-CD dimers is detected.
# To develop a HTS assay for compounds that inhibit MUC1-CD dimerization, the inventors generated purified His-tagged MUC1-CD protein. They also generated a biotin-labeled His-tagged MUC1-CD protein using a standard biotinylation kit. Biotinylated and non-biotinylated proteins were purified through Nickel columns.
# The inventors coated 96- or 384-well plates with non-biotinylated MUC1-CD protein and added biotinylated MUC1-CD protein to the plates to initiate MUC1-CD/MUC1-CD dimerization or oligomerization. They then added a substrate to the plate which will bind to the biotinylated protein (only at the dimer or oligomer state) and the resultant fluorescence was detected by luminescence detection at absorbance 405 nm. A complete schematic illustration of this assay is described in FIG. 6.
# Individual compounds from the chemical libraries were then added at multiple concentrations (0.01 μM to 100 μM) to the plates and following incubation and washing, the plates were read by luminescence detection at […]. […]
# [3] = 100 μM, compared to vehicle (DMSO)
compound,measurement,setting,value
CC[C@H](C)[C@H](NC(=O)[C@H](CC(=O)O)NC(=O)[C@H](CC(C)C)NC(=O)[C@H](CCC(N)=O)NC(=O)CNC(=O)[C@H](Cc1ccc(O)cc1)NC(=O)[C@H](CC(N)=O)NC(=O)[C@H](CCCCN)NC(=O)[C@H](CCCNC(=N)N)NC(=O)[C@H](CCCNC(=N)N)NC(=O)[C@H](CS)NC(=O)[C@H](CCC(N)=O)NC(=O)[C@H](CS)NC(=O)[C@@H](CCCNC(=N)N)NC(=O)[C@@H](CCCNC(=N)N)NC(=O)[C@@H](CCCNC(=N)N)NC(=O)[C@@H](CCCNC(=N)N)NC(=O)[C@@H](CCCNC(=N)N)NC(=O)[C@@H](CCCNC(=N)N)NC(=O)[C@@H](CCCNC(=N)N)NC(=O)[C@@H](CCCNC(=N)N)NC(=O)[C@H](N)CCCNC(=N)N)C(=O)N[C@@H](Cc1ccccc1)C(=O)N1CCC[C@H]1C(=O)O [MUC1/CQC],tumor growth,"[1]; 10 mg/kg/d × 21 d IP, versus MUC1/AQA 50 mg/kg/d",slowed growth
same,tumor growth,"[1]; 50 mg/kg/d IP, initial 7 d of treatment",blocked growth
same,tumor regrowth after treatment stopped,"[1]; 50 mg/kg/d group, next 17 d",no detectable growth
same,tumor histopathology (H&E),"[1]; 10 and 50 mg/kg, versus vehicle or MUC1/AQA",markedly necrotic
"O=c1cc(-c2ccccc2)oc2cc(O)c(O)c(O)c12 [Baicalein, 5,6,7-trihydroxyflavone, reference compound]",inhibition of MUC1-CD dimerization,[2]; [3],little if any effect
MUC1/AQA: control peptide in which the CQC motif was altered to AQA (SEQ ID NO: 11) (AQARRKNYGQLDIFP) [reference compound],MUC1 expression in tumor sections (antibody staining),[1]; versus control tumors,marked down-regulation of MUC1 expression
"O=c1cc(-c2ccc(O)cc2)oc2cc(O)cc(O)c12 [Apigenin, 4′,5,7-trihydroxyflavone]",inhibition at 100 µM,[2]; [3],~80%
same,initial library screen result,[2]; library of Table 1,MUC1 dimerization inhibitory compounds
same,pIC50,"[2]; range of concentrations, read-out: 50% inhibition (IC50) of MUC1-CD dimerization",4.12
